Measurements published in ChEMBL document CHEMBL1201862, “PubChem BioAssay data set” (2004).
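Tested at 5 concentrations; 48 h exposure; 96-well plates; endpoints linearly interpolated, else capped at highest concentration. Abbreviation: GI50, concentration required for 50% inhibition of growth.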 Activity calls are given as the source filed them. Cut-off read from the data, not from the text of the source: active = GI50 up to about 1.1 µM and inactive = higher.

Key:
Test in all cases: NCI anticancer screen, dose series, 48 h
NCI-H460 = tested on: NCI-H460
EKVX = tested on: EKVX
SNB-19 = tested on: SNB-19
COLO 205 = tested on: COLO 205
UO-31 = tested on: UO-31
OVCAR-5 = tested on: OVCAR-5
Hs-578T = tested on: Hs-578T
A549 = tested on: A549
SW-620 = tested on: SW-620
LOX IMVI = tested on: LOX IMVI
DU-145 = tested on: DU-145
HCC 2998 = tested on: HCC 2998
NCI-H23 = tested on: NCI-H23
RPMI-8226 = tested on: RPMI-8226
XF498 = tested on: XF498
BT-549 = tested on: BT-549
TK-10 = tested on: TK-10
NCI-H522 = tested on: NCI-H522
MCF7 = tested on: MCF7
DMS-273 = tested on: DMS-273
SK-MEL-2 = tested on: SK-MEL-2
HCT-116 = tested on: HCT-116
PC-3 = tested on: PC-3
ACHN = tested on: ACHN
SK-MEL-28 = tested on: SK-MEL-28
HT-29 = tested on: HT-29
HOP-92 = tested on: HOP-92
A498 = tested on: A498
IGROV-1 = tested on: IGROV-1
KM12 = tested on: KM12
786-0 = tested on: 786-0
DMS-114 = tested on: DMS-114
OVCAR-3 = tested on: OVCAR-3
SF-268 = tested on: SF-268
MOLT-4 = tested on: MOLT-4
NCI-H226 = tested on: NCI-H226
SR = tested on: SR
SK-MEL-5 = tested on: SK-MEL-5
HOP-62 = tested on: HOP-62
SNB-78 = tested on: SNB-78
M14 = tested on: M14
M19-MEL = tested on: M19-MEL
U-251 = tested on: U-251
OVCAR-4 = tested on: OVCAR-4
NCI/ADR-RES = tested on: NCI/ADR-RES
KM-20L2 = tested on: KM-20L2
T47D = tested on: T47D
CCRF-CEM = tested on: CCRF-CEM
HCT-15 = tested on: HCT-15
MDA-MB-231 = tested on: MDA-MB-231
UACC-257 = tested on: UACC-257
SN12C = tested on: SN12C
OVCAR-8 = tested on: OVCAR-8
HL-60 = tested on: HL-60
MDA-MB-435 = tested on: MDA-MB-435
SK-OV-3 = tested on: SK-OV-3
K562 = tested on: K562
MDA-N = tested on: MDA-N
SF-539 = tested on: SF-539
RXF 393 = tested on: RXF 393
SF-295 = tested on: SF-295
Malme-3M = tested on: Malme-3M
CAKI-1 = tested on: CAKI-1
SNB-75 = tested on: SNB-75

Measured: GI50

CN(C)CCCNc1c2ccccc2nc2cccc([N+](=O)[O-])c12
< 1 nM: HCT-15
active: NCI-H460 < 1 nM | EKVX 1.85 nM | SNB-19 1.73 nM | COLO 205 < 1 nM | UO-31 13 nM | OVCAR-5 2.17 nM | Hs-578T 2.88 nM | A549 < 1 nM | SW-620 < 1 nM | LOX IMVI 1.42 nM | DU-145 2.57 nM | HCC 2998 < 1 nM | NCI-H23 < 1 nM | RPMI-8226 < 1 nM | XF498 10 nM | BT-549 2.52 nM | TK-10 2.15 nM | NCI-H522 < 1 nM | MCF7 < 1 nM | DMS-273 10 nM | SK-MEL-2 < 1 nM | HCT-116 1.52 nM | PC-3 < 1 nM | ACHN < 1 nM | SK-MEL-28 2.35 nM | HT-29 < 1 nM | HOP-92 < 1 nM | A498 < 1 nM | IGROV-1 < 1 nM | KM12 1.17 nM | 786-0 < 1 nM | DMS-114 13.2 nM | OVCAR-3 14.3 nM | SF-268 1.23 nM | MOLT-4 10 nM | NCI-H226 4.8 nM | SR < 1 nM | SK-MEL-5 < 1 nM | HOP-62 1.1 nM | SNB-78 11.7 nM | M14 < 1 nM | M19-MEL 10 nM | U-251 10.3 nM | OVCAR-4 < 1 nM | NCI/ADR-RES 7.98 nM | KM-20L2 10 nM | T47D 15.8 nM | CCRF-CEM 8.24 nM | MDA-MB-231 < 1 nM | UACC-257 2.75 nM | SN12C 1.02 nM | OVCAR-8 19.5 nM | HL-60 3.62 nM | MDA-MB-435 < 1 nM | SK-OV-3 3.67 nM | K562 < 1 nM | MDA-N 1.02 nM | SF-539 1.97 nM | RXF 393 1.18 nM | SF-295 23.6 nM | Malme-3M < 1 nM | CAKI-1 19.6 nM | SNB-75 2.04 nM
